According to patent US20250214977A1, “STAT6 INHIBITORS AND USES THEREOF” (Kymera Therapeutics, Inc., priority 2024, published 2025):

System: Phosphorylation of STAT6 in human PBMC (CD19+ B cells)
Assay: Phosphorylated STAT6 (pSTAT6) flow cytometry assay in human PBMC, IL-4 stimulated
Type: cell-based
Settings: compound 1 hour, 1 ng/ml IL-4 for 15 minutes, read-out: STAT6 IL4 pSTAT6 assay in PBMC: Average IC50
Method in brief: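 Human PBMC preincubated 1 h at 37 °C with compound (9-point 1:3 series, top up to 30 μM), then stimulated with 1 ng/ml IL-4 for 15 min. After fixation, methanol permeabilization and staining, pSTAT6 quantified in CD19+ B cells by flow cytometry; four-parameter fit of inhibition.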

Row | Compound | IC50
1 | CN(C)C(=O)c1cc2cc(C3=CCCN(C(=O)Cc4ccc5c(c4)OCCO5)C3)ccc2o1 [Example I-306] | > 100 µM
2 | CN(C)C(=O)c1cc2ccc(C3=CCCN(C(=O)c4ccc(N5CCOCC5)c(F)c4)C3)cc2[nH]1 [Example I-158] | > 100 µM
3 | CN(C)C(=O)c1cc2cc(C3=CCCN(C(=O)CCc4nncs4)C3)ccc2o1 [Example I-147] | > 100 µM
4 | CN(C)C(=O)c1cc2cc(C3=CCCN(C(=O)CCn4ccnn4)C3)ccc2s1 [Example I-243] | > 100 µM
5 | Cc1nc(CC(=O)N2CCC=C(c3ccc4cc(C(=O)N(C)C)[nH]c4c3)C2)no1 [Example I-41] | 10 to 100 µM
6 | CN(C)C(=O)c1cc2cc(C3=CCCN(C(=O)Cc4ccncc4)C3)ccc2o1 [Example I-279] | > 100 µM
7 | CN(C)C(=O)c1cc2ccc(C3=CCCN(C(=O)CCc4ccon4)C3)cc2[nH]1 [Example I-20] | > 100 µM
8 | CN(C)C(=O)c1cc2ccc(C3=CCCN(C(=O)C4CC4c4ccn(C)n4)C3)cc2[nH]1 (stereo not drawn) [Example I-321] | 10 to 100 µM
9 | CN(C)C(=O)c1cc2cc(C3=CCCN(C(=O)Cn4ncc5ccccc54)C3)ccc2o1 [Example I-284] | > 100 µM
10 | CN(C)C(=O)c1cc2cc(C3=CCCN(C(=O)CCn4ccnn4)C3)cc(N3CCNCC3)c2o1 [Example I-191] | > 100 µM
11 | O=C(CCn1ccnn1)N1CCC=C(c2ccc3occc3c2)C1 [Example I-278] | > 100 µM
12 | CN(C)C(=O)c1cc2ccc(C3=CCCN(C(=O)Cn4ccnn4)C3)cc2[nH]1 [Example I-37] | 10 to 100 µM
13 | CN(C)C(=O)c1cc2ccc(C3=CCCN(C(=O)c4ccc5c(c4)OCC(=O)N5)C3)cc2[nH]1 [Example I-132] | > 100 µM
14 | CN(C)C(=O)c1cc2cc(C3=CCCN(C(=O)CCc4nc5ccccc5[nH]4)C3)ccc2o1 [Example I-267] | > 100 µM
15 | CN(C)C(=O)c1cc2ccc(C3=CCCN(C(=O)CCn4ccnn4)C3)nc2[nH]1 [Example I-196] | 10 to 100 µM
16 | CC(=O)NC(C(=O)N1CCC=C(c2ccc3cc(C(=O)N(C)C)[nH]c3c2)C1)c1cccc(Cl)c1 (stereo not drawn) [Example I-77] | 10 to 100 µM
17 | CN(C)C(=O)c1cc2ccc(C3=CCCN(C(=O)[C@@H]4C[C@H]4c4ccn(C)n4)C3)cc2[nH]1 [Example I-11] | 10 to 100 µM
18 | Cc1cccc(-c2ncccc2C(=O)N2CCC=C(c3ccc4cc(C(=O)N(C)C)[nH]c4c3)C2)c1 [Example I-86] | > 100 µM
19 | CN(C)C(=O)c1cc2ccc(C3=CCCN(C(=O)c4ccc(O)c(F)c4)C3)cc2[nH]1 [Example I-48] | 10 to 100 µM
20 | CN(C)C(=O)c1cc2ccc(C3=CCCN(C(=O)c4ccccc4CSc4ccccc4)C3)cc2[nH]1 [Example I-92] | 10 to 100 µM
21 | CC(=O)N1CCC(c2cccc3c2CC(C(=O)N2CCC=C(c4ccc5oc(C(=O)N(C)C)cc5c4)C2)N(C=O)C3)CC1 (stereo not drawn) [Example I-180] | > 100 µM
22 | CN(C)C(=O)c1cc2ccc(C3=CCCN(C(=O)C4(C#N)CC4)C3)cc2[nH]1 [Example I-29] | 10 to 100 µM
23 | CN(C)C(=O)c1cc2ccc(C3=CCCN(C(=O)CCc4ccn(C)n4)C3)cc2[nH]1 [Example I-10] | > 100 µM
24 | Cc1cc(CC(=O)N2CCC=C(c3ccc4cc(C(=O)N(C)C)[nH]c4c3)C2)on1 [Example I-133] | > 100 µM

Row | Compound | IC50
25 | CN(C)C(=O)c1cc2ccc(C3=CCCN(C(=O)CNC(=O)c4cccc(C(F)(F)F)c4)C3)cc2[nH]1 [Example I-101] | > 100 µM
26 | COc1ccc(CC(=O)N2CCC=C(c3ccc4oc(C(=O)N(C)C)cc4c3)C2)cc1C#N [Example I-256] | > 100 µM
27 | CN(C)C(=O)c1cc2ccc(C3=CCCN(C(=O)CCc4ccno4)C3)cc2[nH]1 [Example I-19] | > 100 µM
28 | CN(C)C(=O)c1cc2cc(C3=CCCN(C(=O)Cc4cnc5ccccn45)C3)ccc2o1 [Example I-276] | > 100 µM
29 | CN(C)C(=O)c1nc2cc(C3=CCCN(C(=O)CCn4ccnn4)C3)ccc2o1 [Example I-214] | > 100 µM
30 | CN(C)C(=O)c1cc2ccc(C3=CCCN(C(=O)CCc4nnco4)C3)cc2[nH]1 [Example I-18] | > 100 µM
31 | C[C@@H](O)C(=O)N1CCC=C(c2ccc3cc(C(=O)N(C)C)[nH]c3c2)C1 [Example I-24] | 10 to 100 µM
32 | CN(C)C(=O)c1cc2ccc(C3=CCCN(C(=O)c4n[nH]cc4I)C3)cc2[nH]1 [Example I-33] | 10 to 100 µM
33 | CC(=O)OCC(C(=O)N1CCC=C(c2ccc3cc(C(=O)N(C)C)[nH]c3c2)C1)c1ccccc1 (stereo not drawn) [Example I-73] | 10 to 100 µM
34 | CN(C)C(=O)c1cc2cc([C@@H]3CC[C@H](CO)N(C(=O)CCn4ccnn4)C3)ccc2o1 (single isomer, unassigned) [Example I-156] | > 100 µM
35 | CN(C)C(=O)c1cc2cc(C3=CCCN(C(=O)Cn4cncn4)C3)ccc2o1 [Example I-315] | > 100 µM
36 | COC(=O)CCC#Cc1cccc2c1CC(C(=O)N1CCC=C(c3ccc4oc(C(=O)N(C)C)cc4c3)C1)N(C=O)C2 (stereo not drawn) [Example I-175] | 1 to 10 µM
37 | CN(C)C(=O)c1cc2ccc(C3=CCCN(C(=O)CCn4ncc5cc(Cl)ncc54)C3)cc2[nH]1 [Example I-80] | > 100 µM
38 | C[C@@H]1CCCCN1C(=O)c1cc2ccc(C3=CCCN(C(=O)CCn4ccnn4)C3)cc2[nH]1 (single isomer, unassigned) [Example I-130] | > 100 µM
39 | CN(C)C(=O)c1cc2ccc(C3=CCCN(C(=O)C4(c5ccc(C(F)(F)F)cc5)CC4)C3)cc2[nH]1 [Example I-84] | > 100 µM
40 | CNc1ccc(-c2cc(C3=CCCN(C(=O)CCn4ccnn4)C3)cc3[nH]c(C(=O)N(C)C)cc23)cc1 [Example I-113] | < 0.1 µM
41 | CN(C)C(=O)c1cc2ccc(C3=CCCN(C(=O)C4CC4F)C3)cc2[nH]1 (stereo not drawn) [Example I-25] | > 100 µM
42 | COc1ccc(Cn2cc(CC(=O)N3CCC=C(c4ccc5cc(C(=O)N(C)C)[nH]c5c4)C3)cn2)cc1 [Example I-136] | > 100 µM
43 | CN(C)C(=O)c1cc2cc(C3=CCCN(C(=O)CCc4ccc5c(c4)OCCO5)C3)ccc2o1 [Example I-280] | > 100 µM
44 | CN(C)C(=O)c1cc2cc(C3=CCCN(C(=O)C4c5ccccc5CCN4C)C3)ccc2o1 (stereo not drawn) [Example I-208] | > 100 µM
45 | CN(C)C(=O)c1cc2ccc(C3=CCCN(C(=O)C(O)Cc4ccccc4)C3)cc2[nH]1 (stereo not drawn) [Example I-52] | 10 to 100 µM
46 | COC(=O)[C@H]1CC[C@H](c2ccc3oc(C(=O)N(C)C)cc3c2)CN1C(=O)CCn1ccnn1 (single isomer, unassigned) [Example I-152] | > 100 µM
47 | CN(C)C(=O)c1cc2cc(C3=CCCN(C(=O)CCc4nc5ccccc5s4)C3)ccc2o1 [Example I-237] | > 100 µM
48 | O=C(CCn1ccnn1)N1CCC=C(c2c[nH]c3cc(-n4ccccc4=O)ccc23)C1 [Example I-277] | > 100 µM

Row | Compound | IC50
49 | CN(C)C(=O)c1cc2ccc(C3=CCCN(C(=O)CN(C)S(=O)(=O)c4ccccc4)C3)cc2[nH]1 [Example I-75] | 10 to 100 µM
50 | NC(=O)c1cc2cc(C3=CCCN(C(=O)CCn4ccnn4)C3)ccc2o1 [Example I-213] | > 100 µM
51 | CN(C)C(=O)c1cc2cc(C3=CCCN(C(=O)CN4CCc5ccccc5C4)C3)ccc2o1 [Example I-296] | > 100 µM
52 | CN(C)C(=O)c1nc2cc(C3=CCCN(C(=O)CCc4ccccn4)C3)ccc2[nH]1 [Example I-199] | > 100 µM
53 | CN(C)C(=O)c1cc2ccc(C3=CCCN(C(=O)CCS(=O)(=O)c4ccccc4)C3)cc2[nH]1 [Example I-66] | 1 to 10 µM
54 | CN(C)C(=O)c1cc2cc(C3=CCCN(C(=O)C4Cc5c(cccc5-n5cccn5)CN4C=O)C3)ccc2o1 (stereo not drawn) [Example I-172] | > 100 µM
55 | CN(C)C(=O)c1cc2ccc(C3=CCCN(C(=O)C4NCCc5ccccc54)C3)cc2[nH]1 (stereo not drawn) [Example I-60] | > 100 µM
56 | CN(C)C(=O)c1cc2cc(C3=CCCN(C(=O)CCc4ccncc4)C3)ccc2o1 [Example I-313] | > 100 µM
57 | CN(C)C(=O)c1cc2ccc(C3=CCCN(C(=O)c4cc5occc5n4-c4ccccc4)C3)cc2[nH]1 [Example I-102] | 10 to 100 µM
58 | CN(C)C(=O)c1cc2cc(C3=CCCN(C(=O)CCc4ccc5ccccc5c4)C3)ccc2o1 [Example I-266] | > 100 µM
59 | CN(C)C(=O)c1cc2cc(C3=CCCN(C(=O)C4Cc5c(cccc5OCCN)CN4C=O)C3)ccc2o1 (stereo not drawn) [Example I-171] | 10 to 100 µM
60 | CN(C)C(=O)c1cc2ccc(C3=CCCN(C(=O)CCn4ccnn4)C3)cc2s1 [Example I-269] | 10 to 100 µM
61 | CN(C)C(=O)c1cc2ccc(C3=CCCN(C(=O)OCn4ccnn4)C3)cc2[nH]1 [Example I-120] | > 100 µM
62 | CN(C)C(=O)c1cc2ccc(C3=CCCN(C(=O)CCC(=O)O)C3)cc2[nH]1 [Example I-112] | > 100 µM
63 | CN(C)C(=O)c1cc2ccc(C3=CCCN(C(=O)[C@@H](N)Cc4cccc(F)c4)C3)cc2[nH]1 [Example I-65] | > 100 µM
64 | CN(C)C(=O)c1cc2cc(C3=CCCN(C(=O)C4Cc5c(N)cccc5CN4C=O)C3)ccc2o1 (stereo not drawn) [Example I-8] | 0.1 to 1 µM
65 | CC(=O)N1Cc2ccccc2CC1C(=O)N1CCC=C(c2ccc3oc(C(=O)N(C)C)cc3c2)C1 (stereo not drawn) [Example I-232] | > 100 µM
66 | CN(C)C(=O)c1cc2cc(C3=CCCN(C(=O)Cc4n[nH]c5ccccc45)C3)ccc2o1 [Example I-302] | > 100 µM
67 | CN(C)C(=O)c1cc2ccc(C3=CCCN(C(=O)C4CCCS4(=O)=O)C3)cc2[nH]1 (stereo not drawn) [Example I-40] | 10 to 100 µM
68 | CN(C)C(=O)c1cc2ccc(C3=CCCN(C(=O)c4snnc4C4CC4)C3)cc2[nH]1 [Example I-143] | > 100 µM
69 | CN(C)C(=O)c1cc2ccc(C3=CCCN(C(=O)c4cn(C5CC5)nn4)C3)cc2[nH]1 [Example I-45] | 10 to 100 µM
70 | CC(Oc1ccccn1)C(=O)N1CCC=C(c2ccc3cc(C(=O)N(C)C)[nH]c3c2)C1 (stereo not drawn) [Example I-54] | 10 to 100 µM
71 | CN(C)C(=O)c1cc2ccc(C3=CCCN(S(=O)(=O)Cc4cccnn4)C3)cc2[nH]1 [Example I-16] | > 100 µM
72 | CN(C)C(=O)c1cc2ccc(C3=CCCN(C(=O)C(O)Cc4ccccc4)C3)cc2[nH]1 (stereo not drawn) [Example I-51] | 10 to 100 µM
